One test concerns KB-3-1. Briefly: Cell survival assay (SRB), KB-3-1. The test is classed as cell-based, human. The note with it: Homo sapiens, KB 3-1, KB-3-1 cells (paclitaxel-sensitive parent); read-out: In vitro IC50 (nM) KB-3-1. The procedure, abridged:
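SRB protein stain as survival read-out; IC50 = conc. giving 50% growth inhibition. Compound serially diluted, duplicate wells, 3 d exposure; TCA fixation (10% final, 1 h, 4 °C), 0.04% SRB/1% acetic acid 10 min, solubilised in 10 mM Trizma Base, A read.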

The next test relates to KB-8-5 (MDR1+). Kind of test: Cell survival assay (SRB), KB-8-5 (MDR1+). The note with it: for IC50: Homo sapiens, MDR1, read-out: In vitro IC50 (nM) KB85.
The test system of the next test is KB-V1 (MDR1++). Kind of test: Cell survival assay (SRB), KB-V1 (MDR1++). The note with it: for IC50: Homo sapiens.
Setting [1] is: read-out: In vitro IC50 (nM) KBV1.

Read-outs that look alike come from different tables or passages of the source. Where only a bound is given, the exact number is not on record here.

A word on the IC50: it is the concentration at which inhibition is half-maximal. In the case of `CNC(C(=O)NC(C(=O)N(C)C(C=C(C)C(=O)O)CC(C)C)C(C)(C)C)C(C)(C)c1ccccc1.O=C(O)C(F)(F)F` (centres unmarked) [Example 104, 4-{[3,3-Dimethyl-2-(3-methyl-2-methylamino-3-phenyl-butyrylamino)-butyryl]-methyl-amino}-2,6-dimethyl-hept-2-enoic Acid Trifluoroacetic Acid], the figures for the IC50 in the test on KB-3-1, with KB-8-5 (MDR1+) and in the test on KB-V1 (MDR1++) (setting [1]) were 27.7 nM, 50.5 nM and 2200 nM, respectively. The “Ratio KB85/KB” value with KB-8-5 (MDR1+) is reported as 1.8. Moreover, the “Ratio KBV1/KB” value in the test with KB-V1 (MDR1++) is given as 79.3.
For `CNC(C(=O)N[C@H](C(=O)N(C)[C@H](/C=C(\C)C(=O)O)C(C)C)C(C)(C)C)C1(c2ccccc2)CC1` (stereo in doubt) [Example 143, (2E,4S)-2,5-dimethyl-4-(methyl{3-methyl-N-[(2R)-2-(methylamino)-2-(1-phenylcyclopropyl)acetyl]-L-valyl}amino)hex-2-enoic Acid] the same measures were 27 nM, 57 nM, 1660 nM, 2.1 and 61.6.
For the compound `CN[C@H](C(=O)N[C@H](C(=O)N(C)[C@H](/C=C(\C)C(=O)O)C(C)C)C(C)(C)C)C(C)(C)c1ccc(C(=O)O)cc1` [Example 45, 4-carboxy-N,β,β-trimethylphenylalanyl-N^1-[(1S,2E)-3-carboxy-1-isopropylbut-2-enyl]-N^1,3-dimethyl-L-valinamide], the IC50 with KB-3-1 was 680 nM; with KB-8-5 (MDR1+) it was 1530 nM; in the test with KB-V1 (MDR1++) (read-out: In vitro IC50 KBV1) it was more than 3000 nM. Besides, the “Ratio KB85/KB” value with KB-8-5 (MDR1+) worked out at 2.3.
For `CN[C@H](C(=O)N[C@H](C(=O)N(C)[C@H](/C=C(\C)C(=O)O)C(C)C)C(C)(C)C)C(C)(C)c1cc(F)cc(F)c1` [Example 64, 3,5-Difluoro-N,β,β-trimethyl-L-phenylalanyl-N^1-[(1S,2E)-3-carboxy-1-isopropylbut-2-enyl]-N^1,3-dimethyl-L-valinamide], the IC50 with KB-3-1 amounted to 6.2 nM; in the test with KB-8-5 (MDR1+), 16.2 nM; with KB-V1 (MDR1++) (setting [1]), 457 nM. The “Ratio KB85/KB” value in the test on KB-8-5 (MDR1+) is given as 2.6. The “Ratio KBV1/KB” value in the test with KB-V1 (MDR1++) came out at 73.7.
As for `CN[C@H](C(=O)N[C@H](C(=O)N(C)[C@H](/C=C(\C)C(=O)O)C(C)C)C(C)(C)C)C(C)(C)c1ccc(OC(C)C)cc1` [Example 68, O-isopropyl-N,β,β-trimethyl-L-tyrosyl-N^1-[(1S,2E)-3-carboxy-1-isopropylbut-2-enyl]-N^1,3-dimethyl-L-valinamide], the IC50 in the test on KB-3-1 came to 1.5 nM; in the test on KB-8-5 (MDR1+), 4.3 nM; in the test with KB-V1 (MDR1++) (setting [1]), 70.8 nM. In addition, the “Ratio KB85/KB” value with KB-8-5 (MDR1+) was found to be 2.9. Moreover, the “Ratio KBV1/KB” value in the test with KB-V1 (MDR1++) came to 47.2.
Turning to `CN[C@H](C(=O)N[C@H](C(=O)N(C)[C@H](/C=C(\C)C(=O)O)C(C)C)C(C)(C)C)C(C)(C)c1cc(C(F)(F)F)cc(C(F)(F)F)c1` [Example 66, N,β,β-trimethyl-3,5-bis(trifluoromethyl)-L-phenylalanyl-N^1-[(1S,2E)-3-carboxy-1-isopropylbut-2-enyl]-N^1,3-dimethyl-L-valinamide], the IC50 in the test on KB-3-1 is 17 nM; with KB-8-5 (MDR1+) it was 19 nM; in the test on KB-V1 (MDR1++) (setting [1]) it was 457 nM. The “Ratio KB85/KB” value in the test with KB-8-5 (MDR1+) is 1.1. In addition, in the test with KB-V1 (MDR1++), the “Ratio KBV1/KB” value was determined as 26.9.
For `CN[C@H](C(=O)N[C@H](C(=O)N(C)[C@H](/C=C(\C)C(=O)O)C(C)C)C(C)(C)C)C(C)(C)c1cccc(Br)c1` [Example 37, 3-bromo-N,β,β-trimethyl-L-phenylalanyl-N^1-[(1S,2E)-3-carboxy-1-isopropylbut-2-enyl]-N^1,3-dimethyl-L-valinamide] the same measures were 1.8 nM, 4.1 nM, 148 nM, 2.3 and 82.2.
Taken in the same sequence, the figures for `CCOC(=O)/C(C)=C/[C@H](C(C)C)N(C)C(=O)[C@@H](NC(=O)[C@@H](NC)C(C)(C)C1CCCCC1)C(C)(C)C` [Reference Example 100, 3-Cyclohexyl-N-methyl-L-valyl-N^1-[(1S,2E)-4-ethoxy-1-isopropyl-3-methyl-4-oxo-2-butenyl]-N^1,3-dimethyl-L-valinamide] were 229 nM, 602 nM, 1950 nM, 2.6 and 8.5.
Taken in the same sequence, the figures for `CCOC(=O)/C(C)=C/[C@H](C(C)C)N(C)C(=O)[C@@H](NC(=O)[C@@H](NC)C(C)(C)c1cc2ccccc2s1)C(C)(C)C` [Example 27, 3-(1-Benzothien-2-yl)-N-methylvalyl-N^1-[(1S,2E)4-ethoxy-1-isopropyl-3-methyl4-oxo-2-butenyl]-N^1,3-dimethyl-L-valinamide] were 331 nM, 1580 nM, not below 3000 nM, 4.8 and 9.1.
In the case of `CN[C@H](C(=O)N[C@H](C(=O)N(C)[C@H](/C=C(\C)C(=O)O)C(C)C)[C@H](C)O)C(C)(C)c1ccccc1` [Example 86, N,β,β-trimethyl-L-phenylalanyl-N^1-[(1S,2E)-3-carboxy-1-isopropyl-2-butenyl]-N^1-methyl-L-allothreoninamide], the IC50 was 311 nM in the test with KB-3-1, 669 nM with KB-8-5 (MDR1+) and not below 3000 nM with KB-V1 (MDR1++) (setting [1]). For the same compound, in the test with KB-8-5 (MDR1+), the “Ratio KB85/KB” value was 2.2. Besides, the “Ratio KBV1/KB” value in the test on KB-V1 (MDR1++) is recorded as 9.7.
For `CN[C@H](C(=O)N[C@H](C(=O)N[C@H](/C=C(\C)C(=O)O)C(C)C)C(C)C)C(C)(C)c1ccccc1.O=C(O)C(F)(F)F` [Example 102, N,β,β-trimethyl-L-phenylalanyl-N^1-[(1S,2E)-3-carboxy-1-isopropylbut-2-enyl]-L-valinamide Trifluoroacetic Acid] the same measures were 371 nM, 618 nM, not below 3000 nM, 1.7 and 8.1.
For `CN[C@H](C(=O)N[C@H](C(=O)N(C)[C@H](/C=C(\C)C(=O)O)CC(C)C)C(C)(C)C)C(C)(C)c1ccccc1` [Example 92, 4-{[3,3-Dimethyl-2-(3-methyl-2-methylamino-3-phenyl-butyrylamino)-butyryl]-methyl-amino}-2,6-dimethyl-hept-2-enoic Acid] the same measures were 126 nM, 264 nM, not below 3000 nM, 2.1 and 23.9.
For `CCOC(=O)/C(C)=C/[C@H](C(C)C)N(C)C(=O)[C@@H](NC(=O)[C@H](NC)C(C)(C)c1cccc(C)c1)C(C)(C)C` [Example 7b, N,β,β,3-tetramethyl-D-phenylalanyl-N^1-[(1S,2E)-4-ethoxy-1-isopropyl-3-methyl4-oxo-2-butenyl]-N^1,3-dimethyl-L-valinamide] the same measures were 263 nM, 1700 nM, not below 3000 nM, 6.5 and 11.4.
For `CN[C@H](C(=O)N[C@H](C(=O)N(C)[C@H](/C=C(\C)C(=O)O)C(C)C)C(C)(C)C)C(C)(C)c1c[nH]c2ccccc12` [Example 141, N,β,β-trimethyl-L-tryptophyl-N^1-[(1S,2E)-3-carboxy-1-isopropyl-2-butenyl]-N^1,3-dimethyl-L-valinamide], the IC50 in the test on KB-3-1 turned out to be 0.695 nM; in the test on KB-8-5 (MDR1+) it was 1.65 nM; with KB-V1 (MDR1++) (setting [1]) it was 96.9 nM. Further, in the test with KB-8-5 (MDR1+), the “Ratio KB85/KB” value was 2.4. The “Ratio KBV1/KB” value in the test with KB-V1 (MDR1++) is recorded as 139.4.
As to `CN[C@H](C(=O)N[C@H](C(=O)N(C)[C@H](/C=C(\C)C(=O)O)C(C)C)C(C)(C)C)[C@H](C)c1ccccc1` [Example 154, (βR)-N,β-dimethyl-L-phenylalanyl-N^1-[(1S,2E)-3-carboxy-1-isopropylbut-2-enyl]-N^1,3-dimethyl-L-valinamide], the figures for the IC50 with KB-3-1, in the test with KB-8-5 (MDR1+) and in the test on KB-V1 (MDR1++) (setting [1]) were 438 nM, 584 nM and more than 3000 nM, respectively. In addition, the “Ratio KB85/KB” value with KB-8-5 (MDR1+) is listed as 1.3. For the same compound, the “Ratio KBV1/KB” value in the test on KB-V1 (MDR1++) is 6.8.
For `CN[C@H](C(=O)N[C@H](C(=O)N(C)[C@H](/C=C(\C)C(=O)O)C(C)C)C(C)(C)C)C(C)(C)SCc1ccc(OC)cc1` [Example 150, 3-[(4-methoxybenzyl)thio]-N-methyl-L-valyl-N^1-[(1S,2E)-3-carboxy-1-isopropylbut-2-enyl]-N^1,3-dimethyl-L-valinamide] the same measures were 5.2 nM, 11.3 nM, 190 nM, 2.1 and 36.5.
For `CN[C@@H](C(=O)N[C@H](C(=O)N(C)[C@H](/C=C(\C)C(=O)O)C(C)C)C(C)(C)C)C(C)(C)Cc1ccccc1` [Example 49, N,3-dimethyl-4-phenyl-D-valyl-N^1-[(1S,2E)-3-carboxy-1-isopropyl-2-butenyl]-N^1,3-dimethyl-L-valinamide] the same measures were 20 nM, 55 nM, 2000 nM, 2.8 and 99.8.
As for `CN[C@H](C(=O)N[C@@H](C(=O)N(C)[C@H](/C=C(\C)C(=O)O)C(C)C)C(C)(C)F)C(C)(C)c1ccccc1` [Example 148, N,β,β-trimethyl-L-phenylalanyl-N^1-[(1S,2E)-3-carboxy-1-isopropylbut-2′enyl]-3-fluoro-N^1-methyl-D-valinamide], the IC50 was 88 nM in the test on KB-3-1, 193 nM in the test on KB-8-5 (MDR1+) and more than 3000 nM with KB-V1 (MDR1++) (setting [1]). In the test with KB-8-5 (MDR1+), the “Ratio KB85/KB” value turned out to be 2.2. Further, in the test on KB-V1 (MDR1++), the “Ratio KBV1/KB” value is listed as 34.1.
